In brackets after ≈: the same amount, converted by molar mass.
How the values were obtained:
Format in all cases: cell-based
Bac. subtilis ATCC 6633 = experiment: agar dilution test, MIC, Bac. subtilis ATCC 6633; details: Bacillus subtilis, ATCC6633, Mueller Hinton agar, 16 to 18 hours, 37° C., read-out: Minimum Inhibitory Concentration
Procedure: (§1) The antimicrobial activity was determined by measuring the Minimum Inhibitory Concentration (MIC). The MIC of the compounds was determined by a standard test, the "agar dilution test" according to Lorian (Antibioticsin Laboratory Medicine, Williams and Wilkins, Baltimore/London 1980) as follows:
(§2) A two-fold decreasing concentration series of each compound was prepared in Petri dishes containing 15 ml of Mueller Hinton agar (Difco). One Petri dish containing only the Mueller Hinton agar served as control for bacterial growth. Each Petri dish was inoculated with a multi-point inoculator (Denley), which transfered 0.6 μl of a 1:100 diluted 18 hours culture of the appropriate test bacterium. After 16 to 18 hours of incubation at 37° C., the Petri dishes were examined for growth of bacteria. The lowest concentration of the compound which causes complete inhibition of growth is taken as the MIC.

Ent. cloacae 1321 E = experiment: agar dilution test, MIC, Ent. cloacae 1321 E; details: Enterobacter cloacae, Mueller Hinton agar, 16 to 18 hours, 37° C., read-out: Minimum Inhibitory Concentration
Procedure: as §1, §2

Str. faecium D = experiment: agar dilution test, MIC, Str. faecium D; details: Enterococcus faecium, Mueller Hinton agar, 16 to 18 hours, 37° C., read-out: Minimum Inhibitory Concentration
Procedure: as §1, §2

Str. pyogenes 308 A = experiment: agar dilution test, MIC, Str. pyogenes 308 A; details: Streptococcus pyogenes, Mueller Hinton agar, 16 to 18 hours, 37° C., read-out: Minimum Inhibitory Concentration
Procedure: as §1, §2

Str. pyogenes 77A = experiment: agar dilution test, MIC, Str. pyogenes 77A; details: Streptococcus pyogenes, Mueller Hinton agar, 16 to 18 hours, 37° C., read-out: Minimum Inhibitory Concentration
Procedure: as §1, §2

[1] = system: a variety of microorganisms, particularly β-lactamase producing organisms; experiment: antibacterial activity compared with the corresponding unsubstituted 3-phenoxy compound; details: against a variety of microorganisms
Procedure: as §1, §2

E. coli KN 126 = experiment: agar dilution test, MIC, E. coli KN 126; details: Escherichia coli, KN126, Mueller Hinton agar, 16 to 18 hours, 37° C., read-out: Minimum Inhibitory Concentration
Procedure: as §1, §2

E. coli 055 = experiment: agar dilution test, MIC, E. coli 055; details: Escherichia coli, Mueller Hinton agar, 16 to 18 hours, 37° C., read-out: Minimum Inhibitory Concentration
Procedure: as §1, §2

E. coli TEM = experiment: agar dilution test, MIC, E. coli TEM; details: Escherichia coli, 18 h, read-out: Minimum Inhibitory Concentration
Procedure: as §1, §2

Staph. aureus 503 = experiment: agar dilution test, MIC, Staph. aureus 503; details: Staphylococcus aureus, Mueller Hinton agar, 16 to 18 hours, 37° C., read-out: Minimum Inhibitory Concentration
Procedure: as §1, §2

Staph. aureus SG 511 = experiment: agar dilution test, MIC, Staph. aureus SG 511; details: Staphylococcus aureus, SG511, Mueller Hinton agar, 16 to 18 hours, 37° C., read-out: Minimum Inhibitory Concentration
Procedure: as §1, §2

Kl. aerog. 1522 E = experiment: agar dilution test, MIC, Kl. aerog. 1522 E; details: Mueller Hinton agar, 16 to 18 hours, 37° C., read-out: Minimum Inhibitory Concentration
Procedure: as §1, §2

Salm. typhimurium MZ II = experiment: agar dilution test, MIC, Salm. typhimurium MZ II; details: Salmonella enterica, Mueller Hinton agar, 16 to 18 hours, 37° C., read-out: Minimum Inhibitory Concentration
Procedure: as §1, §2

Kl. aerog. 1082 E = experiment: agar dilution test, MIC, Kl. aerog. 1082 E; details: Mueller Hinton agar, 16 to 18 hours, 37° C., read-out: Minimum Inhibitory Concentration
Procedure: as §1, §2

E. coli DC2 = experiment: agar dilution test, MIC, E. coli DC2; details: Escherichia coli, Mueller Hinton agar, 16 to 18 hours, 37° C., read-out: Minimum Inhibitory Concentration
Procedure: as §1, §2

E. coli 1507 E = experiment: agar dilution test, MIC, E. coli 1507 E; details: Escherichia coli, Mueller Hinton agar, 16 to 18 hours, 37° C., read-out: Minimum Inhibitory Concentration
Procedure: as §1, §2

Staph. aureus 285 = experiment: agar dilution test, MIC, Staph. aureus 285; details: Staphylococcus aureus, Mueller Hinton agar, 16 to 18 hours, 37° C., read-out: Minimum Inhibitory Concentration
Procedure: as §1, §2

## C[C@@H](O)[C@H]1C(=O)N2C(C(=O)O)=C(Oc3ccc(C(N)=O)cc3)S[C@H]12 [Ra = 4-CONH2, 5R-3-(4-carbamoylphenoxy)-6S-(1R-hydroxyethyl)-7-oxo-4-thia-1-azabicyclo[3,2,0]hept-2-ene-2-carboxylate]
Bac. subtilis ATCC 6633
  MIC: 0.05 µg/mL (≈ 0.143 µM)
Ent. cloacae 1321 E
  MIC: 0.78 µg/mL (≈ 2.23 µM)
Str. faecium D
  MIC: 6.25 µg/mL (≈ 17.8 µM)
Str. pyogenes 308 A
  MIC: 0.025 µg/mL (≈ 0.0714 µM)
Str. pyogenes 77A
  MIC: 0.05 µg/mL (≈ 0.143 µM)
[1]
  antibacterial activity versus the corresponding unsubstituted 3-phenoxy compound: greater antibacterial activity
E. coli KN 126
  MIC: 0.39 µg/mL (≈ 1.11 µM)
E. coli 055
  MIC: 0.19 µg/mL (≈ 0.542 µM)
E. coli TEM
  MIC: 0.39 µg/mL (≈ 1.11 µM)
Staph. aureus 503
  MIC: 0.1 µg/mL (≈ 0.285 µM)
Staph. aureus SG 511
  MIC: 0.05 µg/mL (≈ 0.143 µM)
Kl. aerog. 1522 E
  MIC: 0.78 µg/mL (≈ 2.23 µM)
Salm. typhimurium MZ II
  MIC: 0.78 µg/mL (≈ 2.23 µM)
Kl. aerog. 1082 E
  MIC: 0.39 µg/mL (≈ 1.11 µM)
E. coli DC2
  MIC: 0.78 µg/mL (≈ 2.23 µM)
E. coli 1507 E
  MIC: 0.39 µg/mL (≈ 1.11 µM)
Staph. aureus 285
  MIC: 0.1 µg/mL (≈ 0.285 µM)
